Reference: patent publication US8969352B2, “Substituted 2-azabicycles and their use as orexin receptor modulators” (Janssen Pharmaceutica NV, priority 2013, dated 2015)

What was measured:
rat orexin 1 receptor = rat orexin 1 receptor (Rattus norvegicus, UniProt P56718); assay: Rat orexin 1 receptor radioligand binding; details: HEK293 cells stably expressing rat orexin 1 receptor; competitive radioligand binding, apparent Ki; read-out: rOX1 Ki
Method: (§1) Rat and Human Orexin 1 Receptor Radioligand Binding Studies
(§2) After centrifugation (2K×G, 5 min at 4° C.), the supernatant was aspirated and the pellets frozen and stored at −80° C. […] Each cell pellet from a 15 cm plate was resuspended in 10 mL, stored on ice, and homogenized for 45 sec prior to addition to the reactions. […] The final concentration of DMSO in the reactions is equal to or less than 0.1%. Total and nonspecific binding was determined in the absence and presence of 10 μM almorexant. The total volume of each reaction is 200 μL (20 μL of diluted compounds, 80 μL of [^3H]-(1-(5-(2-fluoro-phenyl)-2-methyl-thiazol-4-yl)-1-((S)-2-(5-phenyl-(1,3,4)oxadiazol-2-ylmethyl)-pyrrolidin-1-yl)-methanone) diluted in PBS and 100 μL of the cell suspension). […] The plates were washed 3 times by aspirating 30 ml PBS through the plates. Plates were dried in 55° C. oven for 60 min, scintillation fluid was added, and the radioactivity was counted on a Topcount (Packard).

human orexin 1 receptor = human orexin 1 receptor (Homo sapiens, UniProt O43613); assay: Human orexin 1 receptor radioligand binding; details: CHO cells stably expressing human orexin 1 receptor; competitive radioligand binding, apparent Ki; read-out: hOX1 Ki
Method: as §1, §2

human orexin 2 receptor = human orexin 2 receptor (Homo sapiens (Human), UniProt O43614); assay: Human orexin 2 receptor radioligand binding; details: HEK293 stably expressing human orexin 2 receptor; [3H]-EMPA competitive binding, apparent Ki; read-out: hOX2 Ki
Chain of human orexin 2 receptor (O43614 whole entry): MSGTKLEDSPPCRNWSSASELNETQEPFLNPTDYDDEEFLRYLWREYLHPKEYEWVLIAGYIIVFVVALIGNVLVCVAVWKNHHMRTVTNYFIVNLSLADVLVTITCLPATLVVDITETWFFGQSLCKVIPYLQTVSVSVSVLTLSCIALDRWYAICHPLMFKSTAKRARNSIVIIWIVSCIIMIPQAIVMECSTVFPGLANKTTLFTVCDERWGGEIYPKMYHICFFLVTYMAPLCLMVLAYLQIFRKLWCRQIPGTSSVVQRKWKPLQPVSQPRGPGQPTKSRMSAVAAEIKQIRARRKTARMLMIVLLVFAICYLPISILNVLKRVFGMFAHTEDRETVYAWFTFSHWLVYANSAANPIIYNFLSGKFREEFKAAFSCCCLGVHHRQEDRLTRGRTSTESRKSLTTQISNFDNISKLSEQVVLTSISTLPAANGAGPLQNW
Method: Human Orexin 2 Receptor Radioligand Binding Studies
as §2, with “sec just” for “sec”, “reactions. Competition binding experiments in 96 well polypropylene plates were performed using [^3H]-EMPA (Moraveck Corporation, specific activity=29.6 Ci/mmol), diluted to a 5 nM concentration in PBS (2 nM final concentration).” for “reactions.”, “[^3H]-EMPA” for “[^3H]-(1-(5-(2-fluoro-phenyl)-2-methyl-thiazol-4-yl)-1-((S)-2-(5-phenyl-(1,3,4)oxadiazol-2-ylmethyl)-pyrrolidin-1-yl)-methanone)”

| Ki (rat orexin 1 receptor) [nM] | Ki (human orexin 1 receptor) [nM] | Ki (human orexin 2 receptor) [nM] | SMILES |
| --- | --- | --- | --- |
| 200 | 342 | 10000 | Cc1ccc(-n2nccn2)c(C(=O)N2CC3CC(Oc4cnc(C(F)(F)F)cn4)C2C3)n1 (racemic) [Example 2, (R/S)-(6-methyl-3-(2H-1,2,3-triazol-2-yl)pyridin-2-yl)(6-((5-(trifluoromethyl)pyrazin-2-yl)oxy)-2-azabicyclo[2.2.1]heptan-2-yl)methanone] |
| 6 | 5 | 252 | O=C(c1cc(F)ccc1-n1nccn1)N1C[C@H]2C[C@@H](Nc3ccc(C(F)(F)F)cn3)[C@@H]1C2 [Example 57, (5-fluoro-2-(2H-1,2,3-triazol-2-yl)phenyl)((1S,4S,6R)-6-((5-(trifluoromethyl)pyridin-2-yl)amino)-2-azabicyclo[2.2.1]heptan-2-yl)methanone] |
| 18 | 27 | 526 | CCOc1ccc2cccnc2c1C(=O)N1CC2CC(Oc3ccc(C(F)(F)F)cn3)C1C2 (racemic) [Example 10, (R/S)-(7-ethoxyquinolin-8-yl)(6-((5-(trifluoromethyl)pyridin-2-yl)oxy)-2-azabicyclo[2.2.1]heptan-2-yl)methanone] |
| 63 | 123 | 8900 | CCOc1ncc2ccccc2c1C(=O)N1CC2CC(Oc3cnc(C(F)(F)F)cn3)C1C2 (racemic) [Example 3] |
| 55 | 47 | > 10000 | Cc1ccc(C(=O)N2C[C@H]3C[C@@H](Oc4ccc(C(F)(F)F)cn4)[C@@H]2C3)c(-n2nccn2)n1 [Example 29, (6-methyl-2-(2H-1,2,3-triazol-2-yl)pyridin-3-yl)((1S,4R,6R)-6-((5-(trifluoromethyl)pyridin-2-yl)oxy)-2-azabicyclo[2.2.1]heptan-2-yl)methanone] |
| 184 | 175 | 5800 | O=C(c1cccc2cc[nH]c12)N1C[C@H]2C[C@@H](Oc3ccc(C(F)(F)F)cn3)[C@@H]1C2 [Example 42, (1H-indol-7-yl)((1S,4R,6R)-6-((5-(trifluoromethyl)pyridin-2-yl)oxy)-2-azabicyclo[2.2.1]heptan-2-yl)methanone] |
| 8 | 8 | 690 | O=C(c1c(F)cccc1-c1ncccn1)N1C[C@H]2C[C@@H](Oc3ccc(C(F)(F)F)cn3)[C@@H]1C2 [Example 38, (2-fluoro-6-(pyrimidin-2-yl)phenyl)((1S,4R,6R)-6-((5-(trifluoromethyl)pyridin-2-yl)oxy)-2-azabicyclo[2.2.1]heptan-2-yl)methanone] |
| 22 | 42 | 2200 | O=C(c1ccc(F)cc1-n1nccn1)N1C[C@H]2C[C@@H](Oc3ccc(C(F)(F)F)cn3)[C@@H]1C2 [Example 44, (4-fluoro-2-(2H-1,2,3-triazol-2-yl)phenyl)((1S,4R,6R)-6-((5-(trifluoromethyl)pyridin-2-yl)oxy)-2-azabicyclo[2.2.1]heptan-2-yl)methanone] |
| 170 | 265 | 1800 | CCOc1ccc(C)nc1C(=O)N1C[C@H]2C[C@@H](Oc3ccc(C(F)(F)F)cn3)[C@@H]1C2 [Example 37, (3-ethoxy-6-methylpyridin-2-yl)((1S,4R,6R)-6-((5-(trifluoromethyl)pyridin-2-yl)oxy)-2-azabicyclo[2.2.1]heptan-2-yl)methanone] |
| 132 | 17 | 108 | COc1cccc(-c2ccn[nH]2)c1C(=O)N1C[C@H]2C[C@@H](Oc3ccc(C(F)(F)F)cn3)[C@@H]1C2 [Example 39, (2-methoxy-6-(1H-pyrazol-5-yl)phenyl)((1S,4R,6R)-6-((5-(trifluoromethyl)pyridin-2-yl)oxy)-2-azabicyclo[2.2.1]heptan-2-yl)methanone] |
| 4 | 2 | 181 | O=C(c1cc(F)ccc1-c1ncccn1)N1C[C@H]2C[C@@H](Nc3ccc(C(F)(F)F)cn3)[C@@H]1C2 [Example 58, (5-fluoro-2-(pyrimidin-2-yl)phenyl)((1S,4S,6R)-6-((5-(trifluoromethyl)pyridin-2-yl)amino)-2-azabicyclo[2.2.1]heptan-2-yl)methanone] |
| 44 | 59 | > 10000 | COc1ccc(C(=O)N2CC3CC(Oc4ccc(C(F)(F)F)cn4)C2C3)c(-c2ncccn2)c1 (racemic) [Example 12, (R/S)-(4-methoxy-2-(pyrimidin-2-yl)phenyl)(6-((5-(trifluoromethyl)pyridin-2-yl)oxy)-2-azabicyclo[2.2.1]heptan-2-yl)methanone] |
| 6 | 9 | 213 | O=C(c1ccccc1-n1nccn1)N1C[C@H]2C[C@@H](Nc3cnc(C(F)(F)F)cn3)[C@@H]1C2 [Example 59, (2-(2H-1,2,3-triazol-2-yl)phenyl)((1S,4S,6R)-6-((5-(trifluoromethyl)pyrazin-2-yl)amino)-2-azabicyclo[2.2.1]heptan-2-yl)methanone] |

| SMILES | Ki (rat orexin 1 receptor) [nM] | Ki (human orexin 1 receptor) [nM] | Ki (human orexin 2 receptor) [nM] |
| --- | --- | --- | --- |
| Cc1ccc(C(=O)N2C[C@H]3C[C@@H](Oc4ccc(C(F)(F)F)cn4)[C@@H]2C3)c(-n2ccnn2)n1 [Example 34, (6-methyl-2-(1H-1,2,3-triazol-1-yl)pyridin-3-yl)((1S,4R,6R)-6-((5-(trifluoromethyl)pyridin-2-yl)oxy)-2-azabicyclo[2.2.1]heptan-2-yl)methanone] | 117 | 462 | 1100 |
